Assay results: PMC9849758, “Chemically diverse activity-based probes with unexpected inhibitory mechanisms targeting trypsin-like serine proteases” (Frontiers in Chemistry, 2023)
Where a name gives a salt, the structure may show the parent alone. Read-outs that look alike come from different tables or passages of the source.

Experiments:
Assay type in all cases: biochemical
[1] = target: T1, uPA (recombinant urokinase plasminogen activator) (Homo sapiens, UniProt P00749); assay: IC50 determination, spectrophotometric protease assay
T1 construct: purchased HYPHEN BioMed
Method: (§1) The IC50 values were determined using a spectrophotometric assay. All the experiments were conducted in duplicate. The readout consisted of evaluating the protease-mediated release of the chromophore para-nitroaniline (pNA) or fluorophore 7-amino-4-methyl coumarin (AMC) moieties from the respective substrates. Enzymatic activity was measured for 30 min at 37°C. All compounds were initially screened at three concentrations (10, 1, and .1 μM) to estimate the range of the IC50 value. Those which were able to reduce protease activity by at least 50% at a concentration of 10 μM were submitted to an exact IC50 determination. […] A third independent experiment was performed when the standard deviation of the two independent experiments was higher than […]. IC50 values were obtained by fitting the data with the four-parameter logistics equation using GraphPad Prism 9.
(§2) The conditions for each protease are described as follows, the concentration of substrate used was at the corresponding Km.

[2] = target: T2, Cathepsin G (cathepsin G human neutrophil) (Homo sapiens, UniProt P08311); assay: as above
T2 construct: Cathepsin G (cathepsin G human neutrophil, Sigma-Aldrich); purchased Sigma-Aldrich; host or cells: human neutrophil
T2 sequence (P08311 21-255): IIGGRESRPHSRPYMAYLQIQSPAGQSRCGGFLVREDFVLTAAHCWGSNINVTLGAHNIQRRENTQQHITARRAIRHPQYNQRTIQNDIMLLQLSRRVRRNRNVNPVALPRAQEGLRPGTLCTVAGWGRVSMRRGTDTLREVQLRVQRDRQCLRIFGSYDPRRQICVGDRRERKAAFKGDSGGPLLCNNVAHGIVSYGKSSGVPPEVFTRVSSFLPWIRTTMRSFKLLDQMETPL
Method: as §1, §2

[3] = target: T3, β-tryptase (recombinant tryptase β-2) (Homo sapiens, UniProt P20231); assay: as above
T3 construct: purchased EnzoLife Sciences
Method: as §1, §2

[4] = target: T4, TLCK-treated pancreatic bovine chymotrypsin (Bos taurus, UniProt P00766); assay: as above
T4 construct: TLCK-treated pancreatic bovine chymotrypsin (Sigma-Aldrich); purchased Sigma-Aldrich; host or cells: bovine pancreas
Method: as §1, §2

[5] = target: T5, Trypsin-3 (recombinant trypsin-3) (Homo sapiens, UniProt P35030); assay: as above
T5 construct: purchased R&D
T5 sequence (P35030 1-304): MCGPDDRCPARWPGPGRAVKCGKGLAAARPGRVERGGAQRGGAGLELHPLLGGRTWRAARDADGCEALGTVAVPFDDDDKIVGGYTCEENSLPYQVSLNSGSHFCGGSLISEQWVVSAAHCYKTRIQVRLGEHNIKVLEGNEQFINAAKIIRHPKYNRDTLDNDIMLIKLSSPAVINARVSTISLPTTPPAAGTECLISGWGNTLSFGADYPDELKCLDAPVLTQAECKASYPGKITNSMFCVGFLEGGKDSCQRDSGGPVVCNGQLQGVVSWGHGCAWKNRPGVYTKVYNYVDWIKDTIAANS
Method: as §1, §2

[6] = target: T6, Thrombin (recombinant thrombin) (Homo sapiens, UniProt P00734); assay: as above
T6 construct: purchased R&D
Method: as §1, §2

Trypsin-3 = target: T7, Trypsin-3 (Homo sapiens, UniProt P35030); assay: Jump dilution, determination of inhibition type; parameters: purchased R&D; details: inhibitor at 10 times IC50, 15 min, diluted 10-fold or 100-fold; Rev./Irrev.
T7 sequence (P35030 1-304): T5 sequence (P35030 1-304)
Method: The dissociation of the enzyme-inhibitor complex was monitored by substrate hydrolysis over time ([Joossens et al., 2006]).
Because ABPs are designed to be irreversible serine protease inhibitors, the IC50 is exclusively used as a first discriminatory evaluation. When an inhibitor is irreversible, its IC50 value not only depends on the substrate and enzyme concentration but also on the time of incubation with the enzyme before the reaction is started by adding the substrate. […] The progress curve in the presence of an irreversible inhibitor will show final velocities equal to zero (Figure 6C). In contrast, for a reversible inhibitor, progress curves have a non-zero final steady-state velocity (Figure 6A) ([McWhirter, 2021]). To corroborate the inhibitory mechanism of the compounds, jump-dilution assays were performed. These use an inhibitor concentration of 10-fold the IC50 for the incubation, and a posteriori, the reaction mixture is diluted 10-fold or 100-fold before adding the substrate. In the case of an irreversible inhibitor, enzymatic activity is not regained (Figure 6D), whereas, in the case of a reversible compound, a slow release of the inhibitor and a gradual increase of the enzymatic activity rate is observed (Figure 6B) ([Copeland, 2013]; [McWhirter, 2021]). The jump-dilution assays confirmed the behavior described by the progress curves.
2.2.2 Jump dilution results
Supplementary Table 2. Jump dilution of selected alkyne and desthiobiotin probes against a panel of trypsin-like serine proteases. […]
# R R DtBa 3 tryptase Thrombin uPA CatG
32b H Alk Irrev. Irrev. Rev. Irrev. Rev.
45b DtB Irrev. Irrev. Rev. N.D. N.D.
33b Alk Irrev. Irrev. Rev. Irrev. Rev.
46b Cl DtB Irrev. Irrev. Rev. N.D. N.D.
34b H Alk Rev. Rev. Rev. Irrev. Rev.
50b DtB Rev. Rev. Rev. Irrev. Rev.
35b Alk Rev. Rev. Rev. Irrev. Rev.
52b NHCOMe DtB Rev. Rev. Rev. Irrev. Rev.
36b Alk Rev. Rev. Rev. Irrev. Rev.
54b Cl DtB Rev. Rev. Rev. Irrev. Rev.
37b Alk Irrev. Irrev. N.D. Irrev. Irrev.
55b H DtB Irrev. Irrev. N.D. Irrev. Irrev.
38b Alk Irrev. Irrev. N.D. Irrev. Irrev.
56b NHCOMe DtB Irrev. Irrev. N.D. Irrev. Irrev.
39b Alk Irrev. Irrev. N.D. Irrev. Rev.
57b Cl DtB Irrev. Irrev. N.D. Irrev. Rev.
41b H Alk Irrev. Irrev. Irrev. N.D. N.D.
31b Pro-Lys H Alk Irrev. Irrev. Irrev. Irrev. N.D. a Alk: ABP precursor bearing an alkyne; DtB: desthiobiotin probe b Panel of serine proteases abbreviations: urokinase plasminogen activator (uPA), cathepsin G (catG) N.D.: IC50 is greater than 10µM, and jump dilution was not performed
2.2.3 Progress curves and Jump dilution experiments
Kinetic assays were performed in the following manner. The inhibitor was mixed with the substrate, and the buffer solution with the enzyme was added at the time zero. The progress curves show the release of para-nitroaniline (pNA) or 7-amino-4-methyl coumarin (AMC) as a function of time.
To monitor the dissociation of the inhibitor-enzyme, aliquots of the enzyme were incubated at 37 °C without and with the inhibitor at a concentration 10 times higher than its IC 50. The enzyme […]
min, the aliquots were diluted 10-fold or 100-fold into the substrate concentration and assay buffer used for the IC50 determination. The dissociation of the enzyme-inhibitor complex was monitored by substrate hydrolysis over time. Blue lines represent the control where no inhibitor was present. Pink lines represent the assay with inhibitor.

[7] = read-out: uPA IC50, desthiobiotin probes, 15 min preincubation at 37°C, mean ± SD
[8] = read-out: CatG IC50, desthiobiotin probes, 15 min preincubation at 37°C, mean ± SD
[9] = read-out: β-tryptase IC50, desthiobiotin probes, 15 min preincubation at 37°C, mean ± SD
[10] = read-out: ChTryp IC50, desthiobiotin probes, 15 min preincubation at 37°C, mean ± SD
[11] = read-out: Trypsin-3 IC50, desthiobiotin probes, 15 min preincubation at 37°C, mean ± SD
[12] = read-out: Thrombin IC50, desthiobiotin probes, 15 min preincubation at 37°C, mean ± SD
[13] = alkyne probes, 15 min preincubation at 37°C, mean ± SD

T3 sequence (P20231 31-275): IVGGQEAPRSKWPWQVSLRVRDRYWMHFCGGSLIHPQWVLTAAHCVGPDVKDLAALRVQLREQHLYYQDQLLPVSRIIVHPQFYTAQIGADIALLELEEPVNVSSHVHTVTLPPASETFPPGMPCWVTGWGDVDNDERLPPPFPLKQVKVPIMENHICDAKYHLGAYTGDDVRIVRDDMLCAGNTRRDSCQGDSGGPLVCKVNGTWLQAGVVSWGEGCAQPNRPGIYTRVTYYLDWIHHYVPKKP

Compound	IC50 [1] [nM]	IC50 [2] [nM]	IC50 [3] [nM]	IC50 [4] [nM]	IC50 [5] [nM]	IC50 [6] [nM]	Trypsin-3 jump dilution result (Trypsin-3)	IC50 [1, 7] [nM]	IC50 [2, 8] [nM]	IC50 [3, 9] [nM]	IC50 [4, 10] [nM]	IC50 [5, 11] [nM]	IC50 [6, 12] [nM]	uPA IC50 [1, 13]	CatG IC50 [2, 13]
C[C@@H]1NC(=O)N[C@@H]1CCCCCC(=O)NCCOCCOCCOCCn1cc(CCCOC(=O)NC(Cc2ccc(NC(=N)N)cc2)P(=O)(Oc2ccccc2)Oc2ccccc2)nn1 (stereo partly drawn) [50b, 3-(1-(18-((4R,5S)-5-methyl-2-oxoimidazolidin-4-yl)-13-oxo-3,6,9-trioxa-12-azaoctadecyl)-1H-1,2,3-triazol-4-yl)propyl (1-(diphenoxyphosphoryl)-2-(4-guanidinophenyl)ethyl)carbamate trifluoroacetate salt]	20 ± 0.1	360 ± 4	360 ± 70	1640 ± 500	30 ± 10	3520 ± 390	Rev.								
C#CCCCOC(=O)NC(CCCNC(=N)N)P(=O)(Oc1ccccc1)Oc1ccccc1 (stereo not drawn) [32b]	4800 ± 80	7570 ± 580	3740 ± 530	> 10000	30 ± 7	850 ± 130	Irrev.								
CC(=O)Nc1ccc(OP(=O)(Oc2ccc(NC(C)=O)cc2)C(NC(=O)OCCCc2cn(CCOCCOCCOCCNC(=O)CCCCC[C@H]3NC(=O)N[C@H]3C)nn2)c2ccc(NC(=N)N)cc2)cc1 (stereo partly drawn) [56b]							Irrev.	5190 ± 80	620 ± 9	390 ± 100	> 10000	220 ± 4	> 10000		
C[C@@H]1NC(=O)N[C@@H]1CCCCCC(=O)NCCOCCOCCOCCn1cc(CCCOC(=O)NC(Cc2ccc(NC(=N)N)cc2)P(=O)(Oc2ccc(Cl)cc2)Oc2ccc(Cl)cc2)nn1 (stereo partly drawn) [54b]	6 ± 0.1	120 ± 10	110 ± 9	5600 ± 1060	8 ± 2	200 ± 20	Rev.								
C#CCCCOC(=O)NC(Cc1ccc(NC(=N)N)cc1)P(=O)(Oc1ccccc1)Oc1ccccc1 (stereo not drawn) [34b]		450 ± 20	630 ± 30	> 10000	1 ± 0.3	8490 ± 2250	Rev.								
C#CCCCOC(=O)NC(CCCNC(=N)N)P(=O)(Oc1ccc(Cl)cc1)Oc1ccc(Cl)cc1 (stereo not drawn) [33b]	250 ± 30	2760 ± 50	170 ± 10	> 10000	40 ± 8	110 ± 7	Irrev.								
C[C@@H]1NC(=O)N[C@@H]1CCCCCC(=O)NCCOCCOCCOCCn1cc(CCCOC(=O)NC(CCCNC(=N)N)P(=O)(Oc2ccc(Cl)cc2)Oc2ccc(Cl)cc2)nn1 (stereo partly drawn) [46b]							Irrev.	420 ± 50	> 10000	40 ± 6	> 10000	70 ± 2	40 ± 6		
C[C@@H]1NC(=O)N[C@@H]1CCCCCC(=O)NCCOCCOCCOCCn1cc(CCCOC(=O)NC(c2ccc(NC(=N)N)cc2)P(=O)(Oc2ccc(Cl)cc2)Oc2ccc(Cl)cc2)nn1 (stereo partly drawn) [57b]							Irrev.	160 ± 40	120 ± 40	20 ± 0.2	> 10000	180 ± 70	> 10000		
CC(=O)Nc1ccc(OP(=O)(Oc2ccc(NC(C)=O)cc2)C(Cc2ccc(NC(=N)N)cc2)NC(=O)OCCCc2cn(CCOCCOCCOCCNC(=O)CCCCC[C@H]3NC(=O)N[C@H]3C)nn2)cc1 (stereo partly drawn) [52b]	10 ± 3	50 ± 7	70 ± 3	> 10000	10 ± 1	760 ± 20	Rev.								
C#CCCCOC(=O)NC(c1ccc(NC(=N)N)cc1)P(=O)(Oc1ccc(Cl)cc1)Oc1ccc(Cl)cc1 (stereo not drawn) [39b, Pent-4-yn-1-yl ((bis(4-chlorophenoxy)phosphoryl)(4-guanidinophenyl)methyl)carbamate]	220 ± 60	90 ± 22	70 ± 4	> 10000	90 ± 9	> 10000	Irrev.								
C#CCCCOC(=O)NC(Cc1ccc(NC(=N)N)cc1)P(=O)(Oc1ccc(NC(C)=O)cc1)Oc1ccc(NC(C)=O)cc1 (stereo not drawn) [35b]	5 ± 1	60 ± 6	50 ± 3	> 10000	< 1	1110 ± 50	Rev.								
C#CCCCOC(=O)NC(Cc1ccc(NC(=N)N)cc1)P(=O)(Oc1ccc(Cl)cc1)Oc1ccc(Cl)cc1 (stereo not drawn) [36b]	5 ± 0.3	340 ± 8	70 ± 20	3230 ± 1210	< 1	1770 ± 50	Rev.								
C#CCCCOC(=O)NC(C1CCN(C(=N)N)CC1)P(=O)(Oc1ccccc1)Oc1ccccc1 (stereo not drawn) [41b]	> 10000	> 10000	8370 ± 440	> 10000	40 ± 2	30 ± 1	Irrev.							no inhibition	no inhibition
C#CCCCOC(=O)NC(c1ccc(NC(=N)N)cc1)P(=O)(Oc1ccccc1)Oc1ccccc1.O=C(O)C(F)(F)F (stereo not drawn) [37b, Pent-4-yn-1-yl ((diphenoxyphosphoryl)(4-guanidinophenyl)methyl)carbamate trifluoroacetate salt]	1790 ± 3	640 ± 30	900 ± 100	> 10000	230 ± 10	> 10000	Irrev.								
